Experimental data: patent US10738028B2, “Spiro three-membered ring, spiro five-membered ring peptide deformylase inhibitor and use thereof in antibacteria and anti-tumor” (priority 2016, dated 2020)
Values after ≈ are worked out from the molar mass of the structure shown.

Legend:
[1] = test system: Enterococcus faecalis (EFA); assay: MIC, two-fold agar dilution (CLSI), clinical isolates; assay type: cell-based
Outline: (§1)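 Susceptibility was tested using CLSI two-fold agar dilution against the strains examined.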

[2] = test system: Escherichia coli (including ESBLs, non-ESBLs); assay: as above; assay type: cell-based
Outline: as §1

[3] = test system: methicillin-resistant Staphylococcus aureus (MRSA); assay: as above; assay type: cell-based
Outline: as §1

[4] = test system: methicillin-resistant Staphylococcus epidermidis (MRSE); assay: as above; assay type: cell-based
Outline: as §1

[5] = test system: methicillin-sensitive Staphylococcus aureus (MSSA); assay: as above; assay type: cell-based
Outline: as §1

[6] = test system: methicillin-sensitive Staphylococcus epidermidis (MSSE); assay: as above; assay type: cell-based
Outline: as §1

[7] = test system: HCT-116 colorectal cancer cell line; assay: CCK-8 proliferation inhibition; assay type: cell-based; conditions: concentration of 30 μM; 72 hours; CCK-8; 30 µM
Outline: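 Cells were plated overnight at 2000 cells/well, then compound in culture medium was added at a range of final concentrations. After 72 hours in a CO2 incubator, medium was replaced with 1:10 CCK-8 solution for the read-out.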

[8] = test system: A549 lung cancer cell line; assay: CCK-8 proliferation inhibition; assay type: cell-based; conditions: Homo sapiens, A549, 72 h, concentration of 30 μM
Outline: (§2)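 Plating at 2000 cells/well, then incubation overnight at 37° C. Next, a range of compound concentrations for 72 hours (control 1‰ DMSO). Finally, medium decanted and CCK-8 diluted 1:10 added.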

[9] = test system: BEL-7402 liver cancer cell line; assay: CCK-8 proliferation inhibition; assay type: cell-based; conditions: concentration of 30 μM, 72 hours, 30 µM
Outline: as §2

[10] = test system: MGC-803 gastric cancer cell line; assay: CCK-8 proliferation inhibition; assay type: cell-based; conditions: concentration of 30 μM
Outline: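 Proliferation was measured with 1:10 diluted CCK-8 after a 72-hour incubation with the inhibitors at various final concentrations, using 1‰ DMSO as the control. Cells were plated at 2000 per well. Culture media contained 10% newborn bovine serum: 1640 for Jurkat and MGC-803, F12 for PC3, DMEM high glucose for MCF-7.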

[11] = test system: methemoglobin in blood samples of three healthy volunteers; assay: Toxicity on methemoglobin in vitro (whole blood with S9 and NADPH, absorbance at 630 nm); assay type: cell-based, human
Procedure: Because PDF inhibitors such as LBM415 and GSK1322322 can produce active species such as aromatic hydroxylamine and aromatic hydrazines in metabolic process, and cause human methemoglobinemia. To this end, continuous wavelength method was adopted in this invention to scan the absorption spectrum of blood samples in the wavelength range of 500 to 700 nm in the ultraviolet-visible spectrophotometer, and the contents of methemoglobin in blood samples of three healthy volunteers were calculated, after being effected by the synthesized compounds.
Experimental materials: Nicotinamide adenine dinucleotide phosphate (NADPH) reduction system: glucose-6-disodium phosphate, nicotinamide adenine dinucleoside phosphate and glucose-6-phosphate dehydrogenase (purchased from Shanghai yuanye Bio-Technology Co., Ltd) were added to 1 mL of phosphate buffer solution (PBS, pH 7.4), and the mixture was shaked in a shaker type water bath at 37° C. for 10 min, and then cooled to 0° C. Mixed human hepatocytes fraction S9 was purchased from Xenotech (20 mg S9 protein/1 mL suspension medium). Compounds were prepared to stock solution at a concentration of 50 mM, which was stored at −20° C. for use. Dapsone was used as positive control experimental reagent, which was purchased from Sigma Aldrich. 1% w/v triton X-100 was self-prepared. Blood samples were collected using Vacutainer tubes containing EDTA anticoagulants (BD, Franklin Lakes, USA), which were sampled from three healthy volunteers and used immediately after sampling.
Preparation of incubation system for blood samples and drugs: 250 μL of incubation system was consist of 220 μL of whole blood, 25 μL of S9 (final concentration: 2 mg S9 protein/mL incubation solution), 2.5 μL of NADPH form system (final concentration: 10 mM G-6-P, 1 mM NADP, 7.5 Units/mL) and 2.5 μL of stock solution of a compound (final concentration 500 μM). […] of incubation system was placed in an Eppendorf tube and incubated for 5 hours at 37° C. in water bath.
Determination of the content of methemoglobin: 60 μL of an incubated sample was taken and lysed with 3.0 mL of 1% Triton X-100. The content of methemoglobin (MetHb) was measured by an ultraviolet-visible spectrophotometer, with the Triton X-100 solution used as blank control. A sample was placed in a cuvette, 1 minute later, the spectrums of the sample in the wavelength range from 500 nm to 700 nm were recorded. The sample was added with 2 mg of potassium ferricyanide, and was allowed to stay stationary for 2 minutes for completely oxidization of ferrous iron in the sample, and standard spectrum of methemoglobin with saturated potassium ferricyanide. The percentage of methemoglobin formation (MetHb %) was obtained by the ratio of absorbance at 630 nm. MetHb %=(A′−AB′)/AM′, wherein, A′ was the total absorbance of the sample at 630 nm, AB′ was the base absorbance of the reduced blood in the sample at 630 nm, and AM′ was the absorbance of oxidized blood with saturated potassium ferricyanide at 630 nm.

[12] = MIC in vitro anti-bacterial experiments, Gram-positive bacteria; assay type: cell-based; conditions: lowest MIC reached; read-out: minimum inhibitory concentration against Gram-positive bacteria
Text: 1. The invention adopts the two-fold agar dilution method recommended by the operating procedure of antimicrobial susceptibility testing set by American Clinical and Laboratory Standards Institute (CLSI) to determine the Minimum Inhibitory Concentration (MIC) of the test samples against the tested strains.

## CCCC[C@H](CN(O)C=O)C(=O)N1CC2(CC2)C[C@H]1C(=O)Nc1ncc(C)s1 [Example 6]
[1]; strain EFA 14-1
  MIC (anti-bacterial activity): 125 ng/mL (≈ 0.306 µM)
[1]; strain EFA 14-2
  MIC (anti-bacterial activity): 500 ng/mL (≈ 1.22 µM)
[1]; strain EFA 14-3
  MIC (anti-bacterial activity): 500 ng/mL (≈ 1.22 µM)
[1]; strain EFA 14-5
  MIC (anti-bacterial activity): 250 ng/mL (≈ 0.612 µM)
[2]; strain ECO+ 14-1
  MIC (anti-bacterial activity): 125 ng/mL (≈ 0.306 µM)
[2]; strain ECO+ 14-2
  MIC (anti-bacterial activity): 32000 ng/mL (≈ 78.3 µM)
[2]; strain ECO− 14-1
  MIC (anti-bacterial activity): 32000 ng/mL (≈ 78.3 µM)
[2]; strain ECO− 14-2
  MIC (anti-bacterial activity): 32000 ng/mL (≈ 78.3 µM)
[3]; strain MRSA 14-1
  MIC (anti-bacterial activity): < 8 ng/mL
[3]; strain MRSA 14-2
  MIC (anti-bacterial activity): < 8 ng/mL
[3]; strain MRSA 14-4
  MIC (anti-bacterial activity): < 8 ng/mL
[3]; strain MRSA 14-5
  MIC (anti-bacterial activity): < 8 ng/mL
[3]; strain printed MRSA 14-1 (second line of that name, r23, before MRSE 14-2)
  MIC (anti-bacterial activity): < 8 ng/mL
[4]; strain MRSE 14-2
  MIC (anti-bacterial activity): < 8 ng/mL
[4]; strain MRSE 14-3
  MIC (anti-bacterial activity): < 8 ng/mL
[4]; strain MRSE 14-4
  MIC (anti-bacterial activity): < 8 ng/mL
[5]; strain MSSA 14-1
  MIC (anti-bacterial activity): < 8 ng/mL
[5]; strain MSSA 14-2
  MIC (anti-bacterial activity): < 8 ng/mL
[5]; strain MSSA 14-3
  MIC (anti-bacterial activity): < 8 ng/mL
[5]; strain MSSA 14-4
  MIC (anti-bacterial activity): < 8 ng/mL
[6]; strain MSSE 14-1
  MIC (anti-bacterial activity): < 8 ng/mL
[6]; strain MSSE 14-2
  MIC (anti-bacterial activity): < 8 ng/mL
[6]; strain MSSE 14-3
  MIC (anti-bacterial activity): < 8 ng/mL
[6]; strain MSSE 14-4
  MIC (anti-bacterial activity): < 8 ng/mL
[7]
  HCT116 inhibition rate/%: 86%
[8]
  inhibition at 30 µM: 26%
[9]
  Inhibition of proliferation, Liver cancer BEL-7402: 74%
[10]; Homo sapiens, MGC-803, 72 h
  inhibition at 30 µM: > 50%
[10]; 72 hours, 30 µM
  Inhibition of proliferation, Gastric cancer MGC-803: 66%
[11]; 500 μM compound, whole blood + S9 + NADPH, 5 hours at 37° C.
  MetHb % (n = 3): 2.25 ± 0.02%
[11]; toxicity test in vitro, in words
  probability of methemoglobin formation in blood compared with the control drugs LBM415 and GSK1322322: lower probability of methemoglobin formation in blood
[12]
  MIC: < 8 ng/mL
